Data reported in patent US20040224981A1, “Antibacterial methods and compositions” (priority 2003, published 2004).
In brackets after ≈: the same amount, converted by molar mass. Where two headings read alike, the source gives them in different places.

Assays:
E. faecium = assay: MIC against E. faecium; assay type: cell-based
Procedure: MRSi compound 5 alone and in combination with mupirocin was tested recent clinical isolates of E. faecalis (n=28) and E. faecium (n=23). Both the acetate salt and mupirocinate salts of MRSi compound 5 maintained potent activity against vancomycin-susceptible and—resistant enterococci (Tables 8, 9, and 10).

S. aureus = assay: Development of resistance following serial passage, S. aureus; assay type: cell-based; details: Staphylococcus aureus
Procedure: (§1) MRSi compound 5 (acetate salt), mupirocin and MRSi compound 5/mupirocin 1:1 combination were tested for development of resistance following serial passage using 19 isolates, including S. aureus, coagulase-negative staphylococci and S. pyogenes strains.

S. epidermidis = assay: Development of resistance following serial passage, S. epidermidis; assay type: cell-based; details: Staphylococcus epidermidis
Procedure: as §1

S. hemolyticus = assay: Development of resistance following serial passage, S. hemolyticus; assay type: cell-based
Procedure: as §1

S. pyogenes = assay: Development of resistance following serial passage, S. pyogenes; assay type: cell-based; details: Streptococcus pyogenes
Procedure: as §1

[1] = tested on: S. aureus ATCC 29213 and 31-1334; assay: Selection of spontaneous resistant mutants (mutation frequency); assay type: cell-based, Staphylococcus aureus
Procedure: Approximately, 10^9 bacteria were plated onto Mueller-Hinton agar supplemented with 10% horse blood and containing various concentrations of the test compounds alone and in combination. After 24 and 48 hours of incubation at 35° C., the bacterial colonies were counted and the frequencies of mutation were determined relative to the total viable count of organisms that were plated. Resistant clones were re-plated once on plates containing the same concentration of agent that was used for the selection.

[2] = tested on: S. aureus RN4220 (pYH4-MRS); assay: Mode of action: MIC with MRS over-production; assay type: cell-based; details: S. aureus RN4220 (pYH4-MRS), +aTC (MRS over-expression)
Procedure: The strain expresses high levels of MRS upon the addition of 0.01 μg/mL of anyhdrotetracycline.

[3] = tested on: mupirocin-resistant S. aureus; details: cited from earlier work
[4] = recent clinical isolates of E. faecium, ALL (23)

C=C(F)c1sc(CNCCCNc2cc(=O)c3ccccc3[nH]2)c(C)c1Br [MRSi Cmpd 5 acetate, N-(4-bromo-5-(1-fluorovinyl)-3-methylthiophen-2-ylmethyl)-N′-(1H-quinolin-4-one)propane-1,3-diamine]
MIC50 (E. faecium; E. faecium, Van-R(12)): < 0.004 µg/mL
MIC90 (E. faecium; E. faecium, Van-R(12)): < 0.004 µg/mL
Mode (MIC) (E. faecium; E. faecium, Van-R(12)): < 0.004 µg/mL
Range (MIC) (E. faecium; E. faecium, Van-R(12), in µg/mL): <0.004-0.03
MIC50 (E. faecium; E. faecium, Van-S (11)): ≦0.004
MIC90 (E. faecium; E. faecium, Van-S (11)): ≦0.004
Mode (MIC) (E. faecium; E. faecium, Van-S (11)): ≦0.004
Range (MIC) (E. faecium; E. faecium, Van-S (11)): ≦0.004
MIC50 (E. faecium; [4]): < 0.004 µg/mL
MIC90 (E. faecium; [4]): < 0.004 µg/mL
Mode (MIC) (E. faecium; [4]): < 0.004 µg/mL
Range (MIC) (E. faecium; recent clinical isolates of E. faecium, ALL (23), in µg/mL): <0.004-0.03
MIC (S. aureus; ATCC29213, read-out: Final MIC after 20 passages, S. aureus ATCC 29213): 4 µg/mL
MIC (S. aureus; ATCC29213, read-out: Initial MIC, S. aureus ATCC 29213): 0.06 µg/mL
MIC (S. aureus; ATCC43300, read-out: Final MIC after 20 passages, S. aureus ATCC 43300 (ORSA)): 1 µg/mL
MIC (S. aureus; ATCC43300, read-out: Initial MIC, S. aureus ATCC 43300 (ORSA)): 0.06 µg/mL
MIC (S. aureus; NRS103, read-out: Final MIC after 20 passages, S. aureus NRS103 (ORSA)): 1 µg/mL
MIC (S. aureus; NRS103, read-out: Initial MIC, S. aureus NRS103 (ORSA)): 0.12 µg/mL
MIC (S. aureus; NRS107, read-out: Final MIC after 20 passages, S. aureus NRS107 (HL-MupR)): 0.5 µg/mL
MIC (S. aureus; NRS107, read-out: Initial MIC, S. aureus NRS107 (HL-MupR)): 0.015 µg/mL
MIC (S. aureus; read-out: Final MIC after 20 passages, S. aureus 10-420 (HL-MupR)): 8 µg/mL
MIC (S. aureus; read-out: Final MIC after 20 passages, S. aureus 25-670 (HL-MupR)): 8 µg/mL
MIC (S. aureus; read-out: Final MIC after 20 passages, S. aureus 31-1334 (LL-MupR)): 8 µg/mL
MIC (S. aureus; read-out: Final MIC after 20 passages, S. aureus 87-2797 (HL-MupR)): 16 µg/mL
MIC (S. aureus; read-out: Final MIC after 20 passages, S. aureus 1079077 (ORSA)): 16 µg/mL
MIC (S. aureus; read-out: Final MIC after 20 passages, S. aureus 1079101 (HL-MupR)): 16 µg/mL
MIC (S. aureus; read-out: Final MIC after 20 passages, S. aureus LZ6 (HL-MupR)): 2 µg/mL
MIC (S. aureus; read-out: Initial MIC, S. aureus 1079077 (ORSA)): 0.25 µg/mL
MIC (S. epidermidis; NRS8, read-out: Initial MIC, S. epidermidis NRS8 (LL-MupR)): 0.06 µg/mL
MIC (S. epidermidis; read-out: Final MIC after 20 passages, S. epidermidis 936528 (HL-MupR)): 0.5 µg/mL
MIC (S. epidermidis; read-out: Final MIC after 20 passages, S. epidermidis 936606 (Oxa-R)): 16 µg/mL
MIC (S. epidermidis; read-out: Initial MIC, S. epidermidis 936528 (HL-MupR)): 0.03 µg/mL
MIC (S. epidermidis; read-out: Initial MIC, S. epidermidis 936606 (Oxa-R)): 0.06 µg/mL
MIC (S. hemolyticus; NRS116, read-out: Final MIC after 20 passages): 16 µg/mL
MIC (S. hemolyticus; NRS116, read-out: Initial MIC): 0.12 µg/mL
MIC (S. pyogenes; ATCC19615, read-out: Final MIC after 20 passages): 1 µg/mL
MIC (S. pyogenes; read-out: Final MIC after 20 passages): 1 µg/mL

C/C(=C\C(=O)OCCCCCCCCC(=O)O)C[C@@H]1OC[C@H](C[C@@H]2O[C@H]2[C@@H](C)[C@H](C)O)[C@@H](O)[C@H]1O [Mupirocin, Pseudomonic acid A]
MIC50 (E. faecium; E. faecium, Van-R(12)): 1 µg/mL
MIC90 (E. faecium; E. faecium, Van-R(12)): > 8 µg/mL
Mode (MIC) (E. faecium; E. faecium, Van-R(12)): 1 µg/mL
MIC50 (E. faecium; E. faecium, Van-S (11)): 1 µg/mL
MIC90 (E. faecium; E. faecium, Van-S (11)): 1 µg/mL
Mode (MIC) (E. faecium; E. faecium, Van-S (11)): 1 µg/mL
Range (MIC) (E. faecium; E. faecium, Van-S (11), in µg/mL): 0.25-1
MIC (E. faecium; Enterococcus faecium, ATCC33667, Table 8, E. faecium ATCC 33667, read-out: MIC): 1 µg/mL
MIC50 (E. faecium; [4]): 1 µg/mL
MIC90 (E. faecium; [4]): > 8 µg/mL
Mode (MIC) (E. faecium; [4]): 1 µg/mL
Mutation Frequency (48 hours) ([1]; S. aureus 31-1334 (low level mupirocin-resistant), selecting concentration 2 x MIC): 1.8 × 10^−8
Mutation Frequency (48 hours) ([1]; S. aureus 31-1334 (low level mupirocin-resistant), selecting concentration 4 x MIC): 2 × 10^−9
Mutation Frequency (48 hours) ([1]; S. aureus 31-1334 (low level mupirocin-resistant), selecting concentration 8 x MIC): <1 × 10^−9
Mutation Frequency (48 hours) ([1]; S. aureus ATCC 29213 (mupirocin susceptible), selecting concentration 2 x MIC): 1.25 × 10^−7
Mutation Frequency (48 hours) ([1]; S. aureus ATCC 29213 (mupirocin susceptible), selecting concentration 4 x MIC): 1.01 × 10^−7
Mutation Frequency (48 hours) ([1]; S. aureus ATCC 29213 (mupirocin susceptible), selecting concentration 8 x MIC): 2.57 × 10^−8
MIC [2]: 0.06 µg/mL (≈ 0.12 µM)
MICs, high level resistance (mupA) ([3]; high level mupirocin resistance, plasmid-encoded IRS enzyme): > 512 µg/mL
MIC's, low level resistance ([3]; low level mupirocin resistance (mutations in chromosomal isoleucyl tRNA synthetase)): 8 to 256 µg/mL
